In PMC10288505, “Photoswitchable Calixarene Activators for Controlled Peptide Transport across Lipid Membranes” (Journal of the American Chemical Society, 2023):

How the values were obtained:
HeLa cells [1] = assay: Confocal fluorescence microscopy of TAMRA-R8 cellular uptake; assay type: cell-based; conditions: TAMRA-R8 3 μM with activator (10, 50, 100, 250 nM), 25 min at 37 °C
Procedure: (§1) Success in artificial vesicle assays encouraged us to conduct transport experiments of fluorescently labeled peptides in living cells (Figure 5). We first employed confocal fluorescence microscopy to evaluate counterion activator 2 for the intracellular transport of a carboxytetramethylrhodamine-labeled R8 peptide (TAMRA-R8) into the cytosol of HeLa cells. Cationic peptides usually remain trapped inside the endosomes when incubated with cells at low μM concentrations.[32],[44] […] The cytometry experiments validated the E isomer selective transport and indicated a four-fold intracellular delivery enhancement (Figure 5C and Figure S52). […]
Figure 5 (A) Schematic representation of oligoarginine intracellular delivery by both isomers of 2. (B) Confocal fluorescence microscopy images of the cellular uptake of 3 μM TAMRA-R8 (in red) facilitated by E-2/Z-2. […] (C) Fluorescence intensity of HeLa cells incubated with 3 μM TAMRA-R8 in the presence of different E-2/Z-2 concentrations, measured by flow cytometry. […]
(§2) Confocal microscopy assays. […] Fluorescence of Hoechst was excited with the 405 nm laser and the emission was detected at 450/50 nm; for the TAMRA fluorescence, an excitation of 561 nm was used while the emission was detected at 620/60 nm. […]
(§3) Flow cytometry assays. […] TAMRA fluorescence was excited at 532 nm (green laser) and […]

HeLa cells [2] = assay: Flow cytometry quantification of TAMRA-R8 uptake; assay type: cell-based; conditions: TAMRA-R8 3 μM, activator 10-250 nM, 25 min, flow cytometry mean fluorescence intensity, quadruplicate
Procedure: as §1, §2, §3
measured on a Guava easyCyte BG HT collecting the emission at 583/26 nm (Yellow-G channel), using InCyte v3.2 (GuavaSoft, Millipore). Cells with typical FSC and SSC parameters were selected and the mean fluorescence intensity was calculated for each sample. Each condition was measured in quadruplicate. […]

## CCCCc1ccc(/N=N/c2ccc(OCCCOc3c4cc(S(=O)(=O)[O-])cc3Cc3cc(S(=O)(=O)[O-])cc(c3O)Cc3cc(S(=O)(=O)[O-])cc(c3O)Cc3cc(S(=O)(=O)[O-])cc(c3O)C4)cc2)cc1.[Li+].[Li+].[Li+].[Li+] [E-2]
HeLa cells [1]
  Intracellular TAMRA-R8 fluorescence in the presence of activator: strong diffuse fluorescence signal in the cytosol, nucleus, and nucleolus
HeLa cells [2]
  Intracellular delivery enhancement of TAMRA-R8, E isomer relative to Z isomer: four-fold
